Earlier results as cited in patent publication US12616655B2, “Topical antibiotic containing pharmaceutical composition for bacterial infections and wound healing” (Vishagan Vanangamudi Sulur, priority 2019, dated 2026).
In brackets after ≈: the same amount, converted by molar mass. Like-named read-outs stand apart in the source and are kept apart here.

What was measured:
[1] = at 22° C.
[2] = through intact human skin
[3] = test system: Staphylococcus aureus

solubility (in alcohol at 20° C.): 500 µg/mL (≈ 999 µM)
solubility (in water at 20° C.): 1000 µg/mL (≈ 2000 µM)
pKa [1]: 5
Systemic absorption [2]: minimal
Compound: C/C(=C\C(=O)OCCCCCCCCC(=O)O)C[C@@H]1OC[C@H](C[C@@H]2O[C@H]2[C@@H](C)[C@H](C)O)[C@@H](O)[C@H]1O [Mupirocin]
inhibition of protein and RNA synthesis [3]: strongly inhibit
